How the values were obtained:
Assay type in all cases: cell-based, human
HDAC4 = HDAC4 nuclear translocation in SH-SY5Y cells (immunoblot); conditions: ApoE4+ASPD induced translocation, 24 h
Description: (§1) Human SH-SY5Y neuroblastoma cells (Sigma-Aldrich), were cultured in 45% F12K, 45% MEM, and 10% FBS. Cells were treated with cholesterol, ASPD, ApoE3/ApoE4+cholesterol, or PKC activators for 24 h. Cholesterol was dissolved in ethanol. ApoE (20 nM) and cholesterol (100 μM) were mixed separately into the cultures. To block the ApoE receptors, cells were treated with RAP for 30 min before adding ApoE. Human primary neurons (ScienCell Research Laboratories) were plated on poly-L-lysine-coated plates and were maintained in neuronal medium (ScienCell Research Laboratories) supplemented with the neuronal growth supplements (ScienCell Research Laboratories). Half of the culture medium was changed every 3 d and fresh activators were added with every medium change to maintain viable neurons.
A PBS solution of 5×10^6 Human SH-SY5Y neuroblastoma cells was centrifuged and the resultant cell pellet was resuspended and washed twice with cold PBS. After the second wash, the cell pellet was resuspended in 500 μl of hypotonic buffer (20 mM Tris-Cl, pH 7.4, 10 mM NaCl, 3 mM MgCl2, and 1 mM PMSF) and incubated on ice for 15 min. Next, 25 μl of 10% NP-40 was added to the cell suspension and the sample was vortexed for 10 s. The homogenate was centrifuged for 10 min at 1000×g at 4° C. to obtain the cytoplasmic fraction (supernatant) and nuclear fraction (pellet). […] Protein concentration was measured using the Coomassie Plus (Bradford) Protein Assay kit (Pierce).
Protein in samples of the supernetant and nuclear fractions was separated by SDSPAGE in a 4-20% gradient Tris-Glycine gel (Invitrogen). […] The immunoblot proteins were detected using ImageQuant RT-ECL (GE Life Sciences) and densitometric quantification was performed using IMAL software, which was developed at our institution. […]

HDAC6 = HDAC6 nuclear translocation in SH-SY5Y cells (immunoblot); conditions: ApoE4+ASPD induced translocation, 24 h
Description: as §1
A PBS solution of 5×10^6 Human SH-SY5Y neuroblastoma cells was centrifuged and the resultant cell pellet was resuspended and washed twice with cold PBS. After the second wash, the cell pellet was resuspended in 500 μl of hypotonic buffer (20 mM Tris-Cl, pH 7.4, 10 mM NaCl, 3 mM MgCl2, and 1 mM PMSF) and incubated on ice for 15 min. Next, 25 μl of 10% NP-40 was added to the cell suspension and the sample was vortexed for 10 s. The homogenate was centrifuged for 10 min at 1000×g at 4° C. to obtain the cytoplasmic fraction (supernatant) and nuclear fraction (pellet). After removing the supernetant, the nuclear pellet was resuspended in 50 μl of complete cell extraction buffer (100 mM Tris-Cl, pH 7.4, 2 mM Na3VO4, 100 mM NaCl, 1% Triton X-100, 1 mM EDTA, 10% glycerol, 1 mM EGTA, 0.1% SDS, 1 mM NaF, 0.5% deoxycholate, 20 mM Na4P2O7, and 1 mM PMSF) and incubated on ice for 30 min with vortexing at 10 min intervals. The nuclear lysate was centrifuged at 14,000×g for 30 min at 4° C. to obtain the nuclear fraction (supernatant). Protein concentration was measured using the Coomassie Plus (Bradford) Protein Assay kit (Pierce).
Protein in samples of the supernetant and nuclear fractions was separated by SDSPAGE in a 4-20% gradient Tris-Glycine gel (Invitrogen). The protein was then transferred to nitrocellulose membrane. The membrane was blocked with BSA at room temperature for 15 min and incubated with primary antibody overnight at 4° C. After incubation, the membrane was washed thrice (3×) with TBS-T (Tris-buffered saline-Tween 20) and further incubated with alkaline-phosphatase-conjugated secondary antibody (Jackson Immunoresearch Laboratories) at 1:10,000 dilution for 45 min. Following incubation, the membrane was washed 3× with TBS-T and developed using the 1-step NBT-BCIP substrate (Pierce). […] The immunoblot proteins were detected using ImageQuant RT-ECL (GE Life Sciences) and densitometric quantification was performed using IMAL software, which was developed at our institution. […]

PKCε mRNA = PKCε mRNA expression in SH-SY5Y cells (qRT-PCR); conditions: ASPD+ApoE4 treated cells plus PKC activator
Description: as §1
qRT-PCR was performed and the results analyzed as described previously (Schmittgen et al., Analyzing real-time PCR data by the comparative C(T) method, Nat. Protoc., 3:1101-1108, 2008; Sen et al., 2012 supra). Total RNA (500 ng) was reverse transcribed using oligo(dT) and Superscript III (Invitrogen) at 50° C. for 1 h. The cDNA products were analyzed using a LightCycler 480 II (Roche) PCR machine and LightCycler 480 SYBR Green 1 master mix following the manufacturer's protocol. […]

BDNF mRNA = BDNF mRNA expression in SH-SY5Y cells (qRT-PCR)
Description: as §1
(§2) qRT-PCR was performed and the results analyzed as described previously (Schmittgen et al., Analyzing real-time PCR data by the comparative C(T) method, Nat. Protoc., 3:1101-1108, 2008; Sen et al., 2012 supra). Total RNA (500 ng) was reverse transcribed using oligo(dT) and Superscript III (Invitrogen) at 50° C. for 1 h. The cDNA products were analyzed using a LightCycler 480 II (Roche) PCR machine and LightCycler 480 SYBR Green 1 master mix following the manufacturer's protocol. Primers for PKCε (forward primer: […], reverse primer: […], PKCα (forward-[…], reverse: […]), PKC (forward: […], reverse: CCGATG […]), GAPDH (forward: […], reverse: […]), and BDNF (forward: […], reverse: […]; Origene).

[1] = tested on: HDAC6-BDNF PIII association; experiment: ChIP: HDAC6 association with BDNF promoter III
Description: as §1
(§3) BDNF promoter- and exon specific primers were used as described previously (Pruunsild et al., Dissecting the human BDNF locus: bidirectional transcription, complex splicing, and multiple promoters, Genomics, 90:397-406, 2007). […]
(§4) ChIP was conducted using the SimpleChlP Enzymatic Chromatin IP kit (Cell Signaling Technology) following the manufacturer's protocol. […] The cumulative fluorescence for each amplicon was normalized to input DNA. […]

[2] = tested on: HDAC6-BDNF PIV association; experiment: ChIP: HDAC6 association with BDNF promoter IV
Description: as §1, §3, §4

BDNF-exon IV = BDNF-exon IV expression in SH-SY5Y cells (qRT-PCR)
Description: as §1, §2
BDNF promoter- and exon specific primers were used as described previously (Pruunsild et al., Dissecting the human BDNF locus: bidirectional transcription, complex splicing, and multiple promoters, Genomics, 90:397-406, 2007). BDNF-promotor I (PI) (forward: […], reverse: […]), BDNF-promotor II (PII) (forward: […], reverse: […]), BDNF-promotor III (PIII) (forward: […], reverse: […]), BDNF-promoter (IV) (PIV) (forward: […], reverse: […]), BDNF-promoter IX (PIX) (forward: […], reverse: […]) were from Invitrogen. […]

CCCCCC1CC1CC1CC1CCCCCCCC(=O)OC (stereo not shown) [DCPLA-ME, DCPLA methyl ester]
reduction of nuclear import of HDAC4 (HDAC4): 35±6.9%
reduction in nuclear HDAC6 (HDAC6): 56±5.9%
PKCε mRNA levels (PKCε mRNA): 0.95±0.09 fold
BDNF expression (BDNF mRNA; cells treated with ApoE4+Chol+DCPLA-ME): 0.95±0.1
BDNF expression (BDNF mRNA; cholesterol treated cells): 1.91±0.21 fold
effect on ApoE4+Chol induced HDAC6-PIII association [1]: blocked the ApoE4+Chol induced increase
effect on ApoE4+Chol induced HDAC6-PIV association [2]: blocked the ApoE4+Chol induced increase
BDNF-exon IV expression (BDNF-exon IV; ApoE3+Chol+DCPLA-ME): 1.98±0.13
BDNF-exon IV expression (BDNF-exon IV; ApoE4+Chol+DCPLA-ME): 0.74±0.01
BDNF-exon IV expression (BDNF-exon IV; DCPLA-ME+Chol): 1.85±0.27 fold
